Each block holds one compound with its values, some of them ahead of it.
System: 475296-252-R-J1-PDC spheroid viability
Assay: Anticancer human tumor 475296-252-R-J1-PDC patient-derived rectal carcinoma cell line growth inhibition [PI3K]
Settings: spheroids with HUVEC and MSC; for IC50: curve of first compound; for viability, T/C: stronger effect = lower value
Method in brief: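 Complex 3D spheroids (cancer cells + endothelial HUVEC + mesenchymal stem cells); drug pairs of targeted agent x inavolisib/alpelisib/duvelisib/copanlisib; half-log series from ~Cmax, max 10 microM if Cmax unknown; endpoint viability.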

[1] = second compound 0.0316 µM, first compound 0.0316 µM
[2] = second compound 0.0316 µM, first compound 0.1 µM
[3] = second compound 0.0316 µM, first compound 0.316 µM
[4] = second compound 0.0316 µM, first compound 1 µM
[5] = second compound 0.0316 µM, first compound 3.16 µM
[6] = second compound 0.0316 µM, first compound 10 µM
[7] = second compound 0.1 µM, first compound 0.0316 µM
[8] = second compound 0.1 µM, first compound 0.1 µM
[9] = second compound 0.1 µM, first compound 0.316 µM
[10] = second compound 0.1 µM, first compound 1 µM
[11] = second compound 0.1 µM, first compound 3.16 µM
[12] = second compound 0.1 µM, first compound 10 µM
[13] = second compound 0.316 µM, first compound 0.0316 µM
[14] = second compound 0.316 µM, first compound 0.1 µM
[15] = second compound 0.316 µM, first compound 0.316 µM
[16] = second compound 0.316 µM, first compound 1 µM
[17] = second compound 0.316 µM, first compound 3.16 µM
[18] = second compound 0.316 µM, first compound 10 µM
[19] = second compound 1 µM, first compound 0.0316 µM
[20] = second compound 1 µM, first compound 0.1 µM
[21] = second compound 1 µM, first compound 0.316 µM
[22] = second compound 1 µM, first compound 1 µM
[23] = second compound 1 µM, first compound 3.16 µM
[24] = second compound 1 µM, first compound 10 µM
[25] = second compound 3.16 µM, first compound 0.0316 µM
[26] = second compound 3.16 µM, first compound 0.1 µM
[27] = second compound 3.16 µM, first compound 0.316 µM
[28] = second compound 3.16 µM, first compound 1 µM
[29] = second compound 3.16 µM, first compound 3.16 µM
[30] = second compound 3.16 µM, first compound 10 µM
[31] = second compound 10 µM, first compound 0.0316 µM
[32] = second compound 10 µM, first compound 0.1 µM
[33] = second compound 10 µM, first compound 0.316 µM
[34] = second compound 10 µM, first compound 1 µM
[35] = second compound 10 µM, first compound 3.16 µM
[36] = second compound 10 µM, first compound 10 µM
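Further: spheroids exposed to agents for seven days before readout.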

IC50 (second compound 0.0316 µM): > 10 µM
IC50 (second compound 0.1 µM): > 10 µM
IC50 (second compound 0.316 µM): 8.41 µM
IC50 (second compound 1 µM): 4.42 µM
IC50 (second compound 3.16 µM): 0.689 µM
IC50 (second compound 10 µM): 0.267 µM
Compound: C#Cc1c(F)ccc2cc(O)cc(-c3ncc4c(N5CC6CCC(C5)N6)nc(OCC56CCCN5CC(F)C6)nc4c3F)c12 (centres undefined) + Cc1nc(NC(=O)N2CCCC2C(N)=O)sc1-c1ccnc(C(C)(C)C(F)(F)F)c1
viability, T/C [1]: 88.4%
viability, T/C [2]: 84.1%
viability, T/C [3]: 88.5%
viability, T/C [4]: 74.2%
viability, T/C [5]: 67.9%
viability, T/C [6]: 66%
viability, T/C [7]: 87.1%
viability, T/C [8]: 78.9%
viability, T/C [9]: 88.1%
viability, T/C [10]: 64.6%
viability, T/C [11]: 66.9%
viability, T/C [12]: 59%
viability, T/C [13]: 80.2%
viability, T/C [14]: 84.7%
viability, T/C [15]: 73.6%
viability, T/C [16]: 71.7%
viability, T/C [17]: 61.1%
viability, T/C [18]: 48%
viability, T/C [19]: 78.4%
viability, T/C [20]: 82.8%
viability, T/C [21]: 72%
viability, T/C [22]: 65.5%
viability, T/C [23]: 60.3%
viability, T/C [24]: 32.7%
viability, T/C [25]: 89.1%
viability, T/C [26]: 75.3%
viability, T/C [27]: 65.1%
viability, T/C [28]: 44.8%
viability, T/C [29]: 21.7%
viability, T/C [30]: 10.4%
viability, T/C [31]: 73.4%
viability, T/C [32]: 70.2%
viability, T/C [33]: 46.6%
viability, T/C [34]: 9.2%
viability, T/C [35]: 5.28%
viability, T/C [36]: 3.54%

IC50 (second compound 0.0316 µM): > 10 µM
IC50 (second compound 0.1 µM): > 10 µM
IC50 (second compound 0.316 µM): > 10 µM
IC50 (second compound 1 µM): > 10 µM
IC50 (second compound 3.16 µM): > 10 µM
IC50 (second compound 10 µM): > 10 µM
Compound: C=CC(=O)N1CCN(c2nc(=O)n(-c3c(C)ccnc3C(C)C)c3nc(-c4c(O)cccc4F)c(F)cc23)C(C)C1 (centres undefined) + Cc1nc(NC(=O)N2CCCC2C(N)=O)sc1-c1ccnc(C(C)(C)C(F)(F)F)c1
viability, T/C [1]: 90%
viability, T/C [2]: 79.2%
viability, T/C [3]: 99.9%
viability, T/C [4]: 89.7%
viability, T/C [5]: 106%
viability, T/C [6]: 102%
viability, T/C [7]: 105%
viability, T/C [8]: 75.8%
viability, T/C [9]: 106%
viability, T/C [10]: 82%
viability, T/C [11]: 104%
viability, T/C [12]: 108%
viability, T/C [13]: 90.4%
viability, T/C [14]: 107%
viability, T/C [15]: 96.4%
viability, T/C [16]: 103%
viability, T/C [17]: 96.8%
viability, T/C [18]: 95%
viability, T/C [19]: 88%
viability, T/C [20]: 94.1%
viability, T/C [21]: 99.8%
viability, T/C [22]: 97.5%
viability, T/C [23]: 109%
viability, T/C [24]: 95.8%
viability, T/C [25]: 83.6%
viability, T/C [26]: 85%
viability, T/C [27]: 95.2%
viability, T/C [28]: 87.2%
viability, T/C [29]: 92.9%
viability, T/C [30]: 93.8%
viability, T/C [31]: 94.6%
viability, T/C [32]: 87.8%
viability, T/C [33]: 95.5%
viability, T/C [34]: 94.2%
viability, T/C [35]: 95.2%
viability, T/C [36]: 80.6%
